Laboratory results: patent publication US8350027B2, “Dual-acting pyrazole antihypertensive agents” (Theravance, Inc., priority 2009, dated 2013)

Experiments:
[1] = molecular target: T1, NEP enzyme (Homo sapiens, UniProt P08473); test: NEP enzyme inhibition assay (fluorogenic peptide substrate); assay type: biochemical; settings: values given as lower bounds; * = prodrugs, may not exhibit NEP activity in an in vitro assay; read-out: NEP pIC50 (converted)
T1 construct: purchased R&D Systems, Minneapolis, Minn; 1182-ZN
T1 sequence (P08473 52-750 limits assumed): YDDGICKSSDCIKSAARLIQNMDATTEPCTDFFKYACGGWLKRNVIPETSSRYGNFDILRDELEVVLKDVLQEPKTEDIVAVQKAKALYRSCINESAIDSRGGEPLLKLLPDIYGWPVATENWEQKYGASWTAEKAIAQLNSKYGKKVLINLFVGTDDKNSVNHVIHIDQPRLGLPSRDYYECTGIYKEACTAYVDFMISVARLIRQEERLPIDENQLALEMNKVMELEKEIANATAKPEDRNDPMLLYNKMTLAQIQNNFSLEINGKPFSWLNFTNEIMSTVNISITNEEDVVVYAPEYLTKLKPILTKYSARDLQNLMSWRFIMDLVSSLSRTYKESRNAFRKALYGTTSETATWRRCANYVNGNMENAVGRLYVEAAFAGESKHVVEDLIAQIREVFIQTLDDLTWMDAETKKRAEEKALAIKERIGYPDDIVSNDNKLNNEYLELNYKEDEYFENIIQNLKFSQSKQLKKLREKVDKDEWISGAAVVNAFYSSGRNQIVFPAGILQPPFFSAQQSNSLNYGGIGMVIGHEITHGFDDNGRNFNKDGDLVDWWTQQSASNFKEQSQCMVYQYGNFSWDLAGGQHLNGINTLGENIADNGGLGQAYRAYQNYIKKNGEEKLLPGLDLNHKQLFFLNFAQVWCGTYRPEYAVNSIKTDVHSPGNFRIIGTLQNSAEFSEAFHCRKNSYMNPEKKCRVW
In short: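 Recombinant human NEP was run with Mca-BK2 (10 μM) at room temperature in Tris buffer with 1 μM Zn. Compounds (10 μM–20 pM, 12 points) were pre-equilibrated 10 min, then reacted 20 min and acid-stopped. Fluorescence ex 320/em 405 nm, one-site competition fit gives pIC50. Thiol compounds may be pre-treated with 400 μM TCEP.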

[2] = molecular target: T2, human AT1 receptor (Homo sapiens, UniProt P30556); test: AT1 radioligand binding assay (displacement of [Eu]AngII); settings: membranes of CHO-K1 cells expressing cloned human AT1 receptor; values given as lower bounds; read-out: AT1 pKi (converted)
T2 construct: expressed in transfected cells; host or cells: CHO-K1
T2 sequence (P30556 1-359): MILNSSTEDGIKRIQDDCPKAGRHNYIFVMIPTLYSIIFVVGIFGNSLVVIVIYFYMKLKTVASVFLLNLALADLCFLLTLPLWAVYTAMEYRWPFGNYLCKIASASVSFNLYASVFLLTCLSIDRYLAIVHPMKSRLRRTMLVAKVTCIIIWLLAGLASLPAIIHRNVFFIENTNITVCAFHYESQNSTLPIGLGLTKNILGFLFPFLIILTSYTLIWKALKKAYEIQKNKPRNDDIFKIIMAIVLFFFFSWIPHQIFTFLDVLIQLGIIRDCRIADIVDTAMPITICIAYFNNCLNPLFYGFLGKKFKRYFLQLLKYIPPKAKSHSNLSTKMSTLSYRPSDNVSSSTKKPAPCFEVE
In short: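 Membranes from CHO-K1 cells stably expressing cloned human AT1, 0.2 μg protein, in 50 mM Tris/HCl pH 7.5, 5 mM MgCl2, 0.025% BSA. Compounds displaced [Eu]AngII over 120 min in the dark at room temperature or 37° C; filter-bound TRF read. Nonspecific binding with 10 μM angiotensin II; IC50 converted to Ki via Cheng-Prusoff, reported as pKi.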

| IC50 [1] [nM] | Ki [2] [nM] | SMILES |
| --- | --- | --- |
| ≤ 100 | ≤ 10 | CCCc1cc(C(=O)N[C@H](Cc2ccccc2)[C@@H](O)C(=O)O)nn1Cc1ccc(-c2ccccc2S(=O)(=O)NC(=O)CO)cc1 [Example 7-15, (2R,3R)-2-Hydroxy-3-({1-[2′-(2-hydroxyacetylsulfamoyl)biphenyl-4-ylmethyl]-5-propyl-1H-pyrazole-3-carbonyl}amino)-4-phenylbutyric acid] |
| ≤ 1000 | ≤ 10 | CCCc1cc(C(=O)N[C@H](Cc2ccccc2)[C@@H](O)C(=O)O)nn1Cc1ccc(-c2ccccc2S(=O)(=O)NC(=O)OCC)cc1 [Example 7-7, (2R,3R)-3-(1-((2′-(N-(ethoxycarbonyl)sulfamoyl)biphenyl-4-yl)methyl)-5-propyl-1H-pyrazole-3-carboxamido)-2-hydroxy-4-phenylbutanoic acid] |
| ≤ 1000 | ≤ 10 | CCCc1cc(C(=O)N[C@H](Cc2ccccc2)[C@@H](O)C(=O)O)nn1Cc1ccc(-c2ccccc2S(=O)(=O)NC(=O)c2ccno2)cc1 [Example 7-6, (2R,3R)-2-Hydroxy-3-[(1-{2′-[(isoxazole-5-carbonyl)sulfamoyl]biphenyl-4-ylmethyl}-5-propyl-1H-pyrazole-3-carbonyl)amino]-4-phenylbutyric acid] |
| ≤ 100 | ≤ 10 | CCCc1cc(C(=O)N[C@@H](CC(=O)O)Cc2ccccc2Br)nn1Cc1ccc(-c2ccccc2-c2nnn[nH]2)nc1 [Example 14-4, (R)-4-(2-Bromophenyl)-3-[(5-propyl-1-{6-[2-(1H-tetrazol-5-yl)-phenyl]-pyridin-3-ylmethyl}-1H-pyrazole-3-carbonyl)amino]butyric acid] |
| ≤ 100 | ≤ 10 | CCCc1cc(C(=O)N[C@H](Cc2ccccc2)[C@@H](O)C(=O)O)nn1Cc1ccc(-c2ccccc2S(=O)(=O)NC(=O)N(C)C)cc1 [Example 7-20, (2R,3R)-3-(1-((2′-(N-(dimethylcarbamoyl)sulfamoyl)biphenyl-4-yl)methyl)-5-propyl-1H-pyrazole-3-carboxamido)-2-hydroxy-4-phenylbutanoic acid] |
| ≤ 1000 | ≤ 10 | CCCc1cc(C(=O)N[C@H](Cc2ccccc2)[C@@H](O)C(=O)O)nn1Cc1ccc(-c2ccccc2-c2nnn[nH]2)cn1 [Example 15-1, (2R,3R)-2-Hydroxy-4-phenyl-3-[(5-propyl-1-{5-[2-(1H-tetrazol-5-yl)phenyl]pyridin-2-ylmethyl}-1H-pyrazole-3-carbonyl)amino]butyric acid] |

The remaining lines, values behind:

| SMILES | IC50 [1] [nM] | Ki [2] [nM] |
| --- | --- | --- |
| CCCc1cc(C(=O)N[C@@H](CC(=O)O)Cc2ccccc2C(F)(F)F)nn1Cc1ccc(-c2ccccc2-c2nnn[nH]2)cc1 [Example 3-36, (R)-3-({5-Propyl-1-[2′-(1H-tetrazol-5-yl)-biphenyl-4-ylmethyl]-1H-pyrazole-3-carbonyl}amino)-4-(2-trifluoromethylphenyl)butyric acid] | ≤ 1000 | ≤ 100 |
| CCCc1cc(C(=O)N[C@@H](CC(C)C)CN(O)C=O)nn1Cc1ccc(-c2ccccc2S(=O)(=O)NC(C)=O)cc1 [Example 6-23, 1-(2′-Acetylsulfamoyl-biphenyl-4-ylmethyl)-5-propyl-1H-pyrazole-3-carboxylic acid {(S)-1-[(formylhydroxyamino)methyl]-3-methylbutyl}amide] | ≤ 100 | ≤ 10 |
| CCCc1cc(C(=O)N[C@@H](CS)Cc2ccccc2)nn1Cc1ccc(-c2ccccc2S(=O)(=O)NC(C)=O)cc1 [Example 6-5, 1-(2′-Acetylsulfamoylbiphenyl-4-ylmethyl)-5-propyl-1H-pyrazole-3-carboxylic acid ((R)-1-benzyl-2-mercaptoethyl)amide] | ≤ 100 | ≤ 10 |
| CCCc1cc(C(=O)N[C@@H](CC(=O)NO)Cc2ccccc2)nn1Cc1ccc(-c2ccccc2S(=O)(=O)NC(C)=O)c(F)c1 [Example 6-17, 1-(2′-Acetylsulfamoyl-2-fluorobiphenyl-4-ylmethyl)-5-propyl-1H-pyrazole-3-carboxylic acid ((R)-1-hydroxycarbamoylmethyl-2-phenylethyl)amide] | ≤ 100 | ≤ 10 |
